This note sets out measurements from paper PMC6989684 (Scientific Reports, 2020).

This test deals with T1, M. musculus importin-α (MmImpα), variant α2, truncated 70–529 (Mus musculus, UniProt P52293).
T1 construct: histidine tag; made in house; host or cells: Escherichia coli Rosetta (TM) pLYS
As to the kind of experiment: Isothermal titration calorimetry (ITC), NLS peptide titrated into MmImpα. It counts as binding. The following applies: 20 °C; for interaction with Impα receptor in words: mutated PAC-3 NLS (basic cluster to Ala), pH 8.0, protein/peptide 1:10 and 1:20; for Stoichiometry (binding): mutated PAC-3 NLS, 20 mM Tris-HCl pH 8.0, 100 mM NaCl, protein/peptide 1:10 and 1:20. From the text:
The gene encoding the protein Impα from M. musculus was cloned into the pET30a expression vector. Recombinant MmImpα was cloned with a histidine tag and as a truncated protein (70–529) to avoid autoinhibition. The clones were provided by Dr. Bostjan Kobe from the University of Queensland (Australia). The plasmid was expressed in Escherichia coli host strain Rosetta (TM) pLYS (Novagen), and the recombinant protein was purified by affinity chromatography according to Barros et al., 2012[59]. The protein was eluted with a 0.0–0.15 M imidazole linear gradient, concentrated using an Amicon dispositive, and the buffer was changed to 20 mM Tris-HCl, pH 8.0 and 100 mM NaCl for storage. The purified protein was stored at cryogenic temperature.
The samples were submitted to ITC experiments, performed with a MicroCal iTC200 microcalorimeter (GE Healthcare), where the peptide sample was titrated into the protein sample. […] Control experiments were performed by titration of the peptide sample into the buffer, and the data obtained were subtracted from the peptide:protein titrations. Data were processed using Origin 7.0 software (Microcal Software, Northampton, MA) to obtain the thermodynamic constants of the interactions.

In the case of “FDAAAAQFDDLNDFFGSVKRRQIN [PAC3Δminor, mutated PAC-3 NLS peptide, N-terminal basic cluster mutated]”, the “interaction with Impα receptor in words” value is reported as “no measured interaction with Impα receptor” and the “Stoichiometry (binding)” value was “No binding”.

Regarding “FDARKRQFDDLNDFFGSVAAAQIN [PAC3Δmajor, mutated PAC-3 NLS peptide, C-terminal basic cluster mutated]”, the “interaction with Impα receptor in words” value is “no measured interaction with Impα receptor” and the “Stoichiometry (binding)” value is “No binding”.
